Target: MAPK14 (human) (UniProt Q16539)
Test: Assesment of MAPK14 Kinase Activity

Sequence of MAPK14 (human) (Q16539 whole entry, looked up): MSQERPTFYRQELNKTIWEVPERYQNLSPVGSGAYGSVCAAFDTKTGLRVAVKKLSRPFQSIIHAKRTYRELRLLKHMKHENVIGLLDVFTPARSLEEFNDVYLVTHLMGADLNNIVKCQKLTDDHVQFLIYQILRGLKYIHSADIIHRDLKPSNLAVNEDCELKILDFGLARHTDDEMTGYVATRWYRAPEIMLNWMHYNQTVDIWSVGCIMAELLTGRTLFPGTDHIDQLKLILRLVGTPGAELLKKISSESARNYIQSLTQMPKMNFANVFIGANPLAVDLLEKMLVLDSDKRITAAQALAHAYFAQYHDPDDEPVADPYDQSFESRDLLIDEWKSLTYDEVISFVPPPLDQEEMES

Row | EC50 [µM] | SMILES
1 | ≤ 10 | CC(C)Cn1ncc2cc(Oc3ccc(F)cc3F)c(C(=O)N[C@H]3CCCN(C)C3=O)cc21
2 | ≤ 10 | CC(C)Cn1ncc2cc(Oc3ccc(F)cc3F)c(C(=O)N[C@H]3CCNC3=O)cc21
3 | ≤ 10 | CC(C)Cn1ncc2cc(Oc3ccc(F)cc3F)c(C(=O)N[C@H]3CCCCN(CCO)C3=O)cc21
4 | ≤ 10 | CC(C)(F)Cn1ncc2cc(Oc3ccc(F)cc3F)c(C(=O)N[C@H]3CCCNC3=O)cc21
5 | ≤ 10 | CC(C)(F)Cn1ncc2cc(Oc3ccc(F)cc3F)c(C(=O)N[C@H]3CCCCNC3=O)cc21

Second part, the compound before the results:

Row | SMILES | EC50 [µM]
6 | CC(C)Cn1ncc2cc(Oc3ccc(F)cc3F)c(C(=O)N[C@H]3CCCCN(C)C3=O)cc21 | ≤ 10
7 | CC(C)Cn1ncc2cc(Oc3ccc(F)cc3F)c(C(=O)N[C@H]3CCN(CCO)C3=O)cc21 | ≤ 10
8 | CC(C)(O)Cn1ncc2cc(Oc3ccc(F)cc3F)c(C(=O)N[C@H]3CCNC3=O)cc21 | ≤ 10
9 | CC(C)Cn1ncc2cc(Oc3ccc(F)cc3F)c(C(=O)N[C@H]3CCCNC3=O)cc21 | ≤ 10
10 | CC(C)Cn1ncc2cc(Oc3ccc(F)cc3F)c(C(=O)N[C@H]3CCN(C)C3=O)cc21 | ≤ 10
11 | CC(C)Cn1ncc2cc(Oc3ccc(F)cc3F)c(C(=O)Nc3ccc[nH]c3=O)cc21 | ≤ 10
12 | CC(C)(F)Cn1ncc2cc(Oc3ccc(F)cc3F)c(C(=O)N[C@H]3CCNC3=O)cc21 | ≤ 10
13 | CC(C)(F)Cn1ncc2cc(Oc3ccc(F)cc3F)c(C(=O)ON3C(=O)CCC3=O)cc21 | ≤ 10
14 | CC(C)Cn1ncc2cc(Oc3ccc(F)cc3F)c(C(=O)N[C@H]3CCCN(CCO)C3=O)cc21 | ≤ 10
15 | CC(C)Cn1ncc2cc(Oc3ccc(F)cc3F)c(C(=O)N[C@H]3CCCCNC3=O)cc21 | ≤ 10

From the Kinase Knowledgebase extract (Sharma et al. 2016)
